Patent publication US20040073973A1, “Plant enzyme and use thereof” (priority 1996, published 2004)

Legend:
Format in all cases: biochemical, Ulmus glabra
[1] = tested on: Developing Elm Seed Soluble PLA2; test: Effects of reduction, EGTA and heat on PLA2 activity; conditions: for sensitivity of PLA2 activities to reducing agents: purified soluble and microsomal PLA2s; for PLA2 Activity Released [^14C] fatty acids: control 4740 dpm
Description: (§1) Membrane associated PLA2 activity was assayed according to Stahl et al. (1995) using sn-1-palmitoyl-sn-2-[^14C]decanoyl-sn-glycerol-3-phosphocholine as substrate. In standard assays of the solubilized microsomal activity and of the soluble activity 1-palmitoyl-2-[[…]]palmitoyl-glycerol-sn-3-phosphocholine was used as substrate and was presented as mixed micelles with the non-ionic detergent lubrol PX, in a PC/detergent molar relation of 1:10. Samples, 0.5-10 μl, were assayed for PLA2 activity by incubation at 30° C. for 5-30 min with 5 nmol of ^14C-labelled phosphatidylcholine (10,000 dpm/nmol) in a total volume of 50 μl of 50 mM Tris/HCl, pH 8.0 containing 10 mM CaCl2 and 0.06% (w/v) lubrol PX. The reaction was stopped by the addition of 400 μl of chloroform/methanol/acetic acid 50:50:1 followed by 150 μl of H2O. The samples were mixed thoroughly and centrifuged 10,000 g for 1 min. Chloroform phases containing extracted lipids were passed through mini-columns of silica gel, followed by a wash with 400 μl of chloroform. The eluates from the silica columns, containing released [^14C]palmitic acid, were collected and analysed by scintillation counting.

microsomal PLA2 = test: Substrate specificity of microsomal PLA2
Description: as §1

[2] = tested on: soluble developing elm seed PLA2; test: Position specificity of soluble PLA2 (partly purified fraction)
Description: as §1

SMILES | sensitivity of PLA2 activities to reducing agents [1] | Recovered ^14C activity in LPC (microsomal PLA2) | Recovered ^14C activity in PC (microsomal PLA2) | Recovered ^14C activity in fatty acid (microsomal PLA2) | also measured
O[C@H](CS)[C@H](O)CS (racemic) [DTT, dithiothreitol] | sensitive |  |  |  | 
O=C(O)CN(CCOCCOCCN(CC(=O)O)CC(=O)O)CC(=O)O [EGTA] |  |  |  |  | PLA2 Activity Released [^14C] fatty acids ([1]; EGTA 10 mM): 170 dpm
OCCS [Mercaptoethanol] | sensitive |  |  |  | PLA2 Activity Released [^14C] fatty acids ([1]; Mercaptoethanol 1% (v/v)): 170 dpm
CCCCCCCCCCCCCCCC(=O)OC[C@H](COP(=O)([O-])OCC[N+](C)(C)C)OC(=O)CCCCCCCCC [sn-1-16:0-sn-2-[^14C]10:0-PC, sn-1-palmitoyl-sn-2-[^14C]decanoyl-sn-glycerol-3-phosphocholine] |  | 0.6 % of total recovery | 54 % of total recovery | 44 % of total recovery | 
CCCCCCCCCCCCCCCC(=O)OC[C@H](COP(=O)([O-])OCC[N+](C)(C)C)OC(=O)CCCCCCCCCCCCCCC [sn-1-16:0-sn-2-[^14C]16:0-PC, sn-1-palmitoyl-sn-2-[^14C]palmitoyl-sn-glycerol-sn-3-phosphocholine] |  | 0.8 % of total recovery | 65 % of total recovery | 34 % of total recovery | Recovered ^14C activity in LPC [2]: 0.6 % of total recovery; Recovered ^14C activity in PC [2]: 56 % of total recovery; Recovered ^14C activity in fatty acid [2]: 44 % of total recovery
